Measured values published in PubChem BioAssay (NCI).
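Growth conditions: 96-well plates. Treatment: test compound, 48 hours, 5 concentrations. Analysis: linear interpolation between bracketing concentrations; unreached endpoints set to highest concentration. GI50 = concentration required for 50% inhibition of growth. TGI: total growth inhibition.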

What was measured:
Test in all cases: NCI-60 cell line screen, 48 h
[1] = system: BT-549 breast
[2] = system: COLO 205 colon
[3] = system: DU-145 prostate
[4] = system: MALME-3M melanoma
[5] = system: MCF7 breast
[6] = system: NCI-H23 lung
[7] = system: NCI/ADR-RES ovarian
[8] = system: OVCAR-3 ovarian
[9] = system: SF-295 CNS
[10] = system: SN12C renal

| Compound | GI50 [1] [µM] | TGI [1] [µM] | GI50 [2] [µM] | TGI [2] [µM] | GI50 [3] [µM] | TGI [3] [µM] | GI50 [4] [µM] | TGI [4] [µM] | GI50 [5] [µM] | TGI [5] [µM] | GI50 [6] [µM] | TGI [6] [µM] | GI50 [7] [µM] | TGI [7] [µM] | GI50 [8] [µM] | TGI [8] [µM] | GI50 [9] [µM] | TGI [9] [µM] | GI50 [10] [µM] | TGI [10] [µM] |
| --- | --- | --- | --- | --- | --- | --- | --- | --- | --- | --- | --- | --- | --- | --- | --- | --- | --- | --- | --- | --- |
| CCSc1ncnc2c1ncn2C1OC(CO)C(O)C1O (stereo not drawn) | 0.729 | > 44.2 | 0.777 | > 100 | 0.129 | 32.5 | 9.41 | > 100 | 0.288 | > 91.2 | 0.434 | > 100 | 0.432 | > 57.1 | 0.312 | > 79.7 | 0.843 | > 43.1 | 0.449 | > 100 |
| Nc1c(C(=O)Nc2ccncc2)sc2nc3c(cc12)CCCCCCCC3 | 0.838 | 1.6 | 0.997 | 2.18 | 0.944 | 1.72 | 0.87 | 1.66 | 0.886 | 1.75 | 0.9 | 1.74 | 0.921 | 1.78 | 0.946 | 1.68 | 0.907 | 1.69 | 0.905 | 1.74 |
| O=C1OCC2=C1C(c1cccc(Br)c1)c1cc3c(cc1N2CCO)CCC3 (stereo not drawn) | 0.209 | 6.5 | 0.111 | 0.263 | 0.137 | 0.466 | 0.066 | 12.1 | 0.0257 | 9.66 | 0.136 | 8.42 | 0.025 | 0.234 | 0.0339 | 0.153 | 0.034 | 8.36 | 0.246 | 6.9 |
| O=C(CC1(O)C(=O)N(Cc2ccccc2)c2ccc(F)cc21)c1ccc(C(=O)NCC2CCC3(CC2)OOC2(CCCCC2)OO3)cc1 (stereo not drawn) | 1.88 | 4.28 | 0.728 | 2.02 | 0.187 | 0.335 | 0.226 | 0.54 | 1.92 | > 31.9 | 0.246 | 0.634 | 0.373 | 1.14 | 0.254 | 0.634 | 0.654 | 1.69 | 1.73 | 3.74 |
| C=C(C)[C@@H]1CC[C@]2(C)[C@H](CC=C3[C@@H]4CC(C)(C)CC[C@]4(C(N)=O)CC[C@]32C)[C@@]1(C)CCC#N | 2.09 | 5.53 | 2.6 | 7.36 | 4.8 | > 100 | 2.24 | 5.91 | 2.81 | 24.5 | 3.66 | > 100 | 3.75 | > 100 | 3.49 | > 100 | 3.91 | > 100 | 1.84 | 3.7 |
| COc1cc2c(cc1OCCCNC(=O)c1cccc3c(=O)c4ccccc4[nH]c13)N=C[C@@H]1CCCN1C2=O | < 0.01 | < 0.0437 | < 0.01 | 0.0437 | < 0.01 | 13.5 | – | 0.388 | < 0.0242 | 13.8 | < 0.01 | < 0.0225 | 0.379 | > 26.4 | – | 6.64 | < 0.0508 | 4.46 | < 0.01 | < 0.0126 |
| O=C1C=CC(=O)c2cc3cc(CBr)ccc3cc21 | 2.75 | 8.96 | 4.19 | 28.7 | 2.35 | 6.54 | 3.1 | 29.3 | 9.73 | > 100 | 9.84 | 30.8 | 6.78 | 32.4 | 7.43 | > 21.8 | 25.9 | > 73.9 | 0.741 | 2.91 |
| Nc1nc(/C=C\c2ccc([N+](=O)[O-])s2)nc(N2CCCC2)n1 | 7.17 | 20.9 | 0.524 | 3.5 | 2.47 | 16.4 | 12.3 | 28.5 | 3.16 | 16.1 | 5.84 | 18.6 | 4.51 | 23.2 | 3.49 | 12.2 | 4.4 | 21.3 | 3.45 | 20.5 |
